Read-outs that look alike come from different tables or passages of the source. *1 amine or outer side, *2 acyl side, *3 side chain or, on linkers, in order; H or OH if unused. Where a SMILES comes first, the peptide text is derived from it. Bridges are numbered along the chain shown (N, C = ends). Roman numbers before positions name the chains, in order. [ ]: non-standard residue; d: D form. Actinocin(9to1) = Cc1c2oc3c(C)ccc(C(=O)[*:1])c3nc-2c(C(=O)[*:2])c(N)c1=O; NMeV = CN[C@H](C(=O)O)C(C)C; Sar = CNCC(=O)O
Columns and labels:
[1] = tested on: HSC-2 (human squamous carcinoma, derived from tongue); experiment: MTT cytotoxicity assay, HSC-2; assay type: cell-based; settings: HSC-2, 48 h, read-out: CC50 HSC-2
Procedure: (§1) The cancer cell lines (HSC-2, HSC-3, HSC-4), as well as the normal cells (HGF, HPLF, and HPC), were cultured at 37°C in a humidified 5% CO2 incubator in DMEM medium enriched with streptomycin sulphate (100 μg/mL), 10% heat-inactivated FBS, and penicillin G (100 units/mL). For cytotoxicity testing, cells were then garnered using 0.25% trypsin–0.025% sodium edetate in a phosphate-buffered saline lacking Ca^2+/Mg^2+ [PBS (−)]. The cells were cultured in 96-well microplates at a cell count of 3 ×10^3 cells/100 μL. After 2 days, the exhausted medium was replaced with fresh medium containing the different concentrations of sample to be tested, in triplicate. The initial sample concentration was set at 5 mg/mL in DMSO. The first concentration examined was thus 500 μg/mL, which was then successively diluted 2-fold. In the wells assigned for control, equal volumes of the DMSO were added to the cells, where the toxic effects of DMSO could be subtracted. The cell growth in the incubator was continued for another 2 days. To determine the cell viability, the colorimetric MTT method was employed as described in our preceding article ([Orabi et al., 2021]). The concentration of cytotoxicity 50% (CC50) was determined from the dose-response curve. The mean CC50 value for each type of cell was calculated from triplicate assays ([Kantoh et al., 2010]).

[2] = tested on: HSC-3 (human squamous carcinoma, derived from tongue); experiment: MTT cytotoxicity assay, HSC-3; assay type: cell-based; settings: HSC-3, 48 h, read-out: CC50 HSC-3
Procedure: as §1

[3] = tested on: HSC-4 (human squamous carcinoma, derived from tongue); experiment: MTT cytotoxicity assay, HSC-4; assay type: cell-based; settings: HSC-4, 48 h, read-out: CC50 HSC-4
Procedure: as §1

[4] = MTT cytotoxicity assay, HGF; assay type: cell-based; settings: human, normal gingival fibroblasts (HGF), normal cells, 2 days exposure
Procedure: as §1

[5] = MTT cytotoxicity assay, HPLF; assay type: cell-based; settings: human, normal periodontal ligament fibroblasts (HPLF), normal cells, 2 days exposure
Procedure: as §1

[6] = MTT cytotoxicity assay, HPC; assay type: cell-based; settings: human, normal pulp cells (HPC), 2 days exposure
Procedure: For cytotoxicity testing, cells were then garnered using 0.25% trypsin–0.025% sodium edetate in a phosphate-buffered saline lacking Ca^2+/Mg^2+ [PBS (−)]. The cells were cultured in 96-well microplates at a cell count of 3 ×10^3 cells/100 μL. After 2 days, the exhausted medium was replaced with fresh medium containing the different concentrations of sample to be tested, in triplicate. The initial sample concentration was set at 5 mg/mL in DMSO. The first concentration examined was thus 500 μg/mL, which was then successively diluted 2-fold. In the wells assigned for control, equal volumes of the DMSO were added to the cells, where the toxic effects of DMSO could be subtracted. The cell growth in the incubator was continued for another 2 days. To determine the cell viability, the colorimetric MTT method was employed as described in our preceding article ([Orabi et al., 2021]). The concentration of cytotoxicity 50% (CC50) was determined from the dose-response curve. The mean CC50 value for each type of cell was calculated from triplicate assays ([Kantoh et al., 2010]). The changes in cell morphology were detected using light microscopy (EVOSfl; ThermoFisher Scientific, Waltham, MA, United States).

[7] = MTT cytotoxicity assay, normal oral cells together (mean); assay type: cell-based; settings: human; mean of HGF, HPLF, HPC; read-out: CC50 Mean (D), human normal oral cells
Procedure: The cancer cell lines (HSC-2, HSC-3, HSC-4), as well as the normal cells (HGF, HPLF, and HPC), were cultured at 37°C in a humidified 5% CO2 incubator in DMEM medium enriched with streptomycin sulphate (100 μg/mL), 10% heat-inactivated FBS, and penicillin G (100 units/mL). For cytotoxicity testing, cells were then garnered using 0.25% trypsin–0.025% sodium edetate in a phosphate-buffered saline lacking Ca^2+/Mg^2+ [PBS (−)]. The cells were cultured in 96-well microplates at a cell count of 3 ×10^3 cells/100 μL. After 2 days, the exhausted medium was replaced with fresh medium containing the different concentrations of sample to be tested, in triplicate. The initial sample concentration was set at 5 mg/mL in DMSO. The first concentration examined was thus 500 μg/mL, which was then successively diluted 2-fold. In the wells assigned for control, equal volumes of the DMSO were added to the cells, where the toxic effects of DMSO could be subtracted. The cell growth in the incubator was continued for another 2 days. […] The concentration of cytotoxicity 50% (CC50) was determined from the dose-response curve.

[8] = tested on: Ca9-22 (human gingival squamous carcinoma cell line); experiment: MTT cytotoxicity assay, Ca9-22; settings: for CC50: Homo sapiens, Ca9-22, 48 h, read-out: CC50 Ca9-22 (A)
Procedure: (§2) The cancer cell lines (HSC-2, HSC-3, HSC-4), as well as the normal cells (HGF, HPLF, and HPC), were cultured at 37°C in a humidified 5% CO2 incubator in DMEM medium enriched with streptomycin sulphate (100 μg/mL), 10% heat-inactivated FBS, and penicillin G (100 units/mL). For cytotoxicity testing, cells were then garnered using 0.25% trypsin–0.025% sodium edetate in a phosphate-buffered saline lacking Ca^2+/Mg^2+ [PBS (−)]. The cells were cultured in 96-well microplates at a cell count of 3 ×10^3 cells/100 μL. After 2 days, the exhausted medium was replaced with fresh medium containing the different concentrations of sample to be tested, in triplicate. The initial sample concentration was set at 5 mg/mL in DMSO. The first concentration examined was thus 500 μg/mL, which was then successively diluted 2-fold. In the wells assigned for control, equal volumes of the DMSO were added to the cells, where the toxic effects of DMSO could be subtracted. The cell growth in the incubator was continued for another 2 days. […] The concentration of cytotoxicity 50% (CC50) was determined from the dose-response curve. […] The changes in cell morphology were detected using light microscopy (EVOSfl; ThermoFisher Scientific, Waltham, MA, United States).
(§3) The following equation was used to calculate tumor specificity (TS): TS = average CC50 toward the normal cells (HGF + HPLF + HPC)/average CC50 toward the tumor cell lines (Ca9-22 + HSC-2 + HSC-3 + HSC-4), as indicated by D/B (Table 1). To compare the sensitivity of the cancer cells (Ca9-22) with that of the normal cells (HGF), being generated from the same tissue, the equation TS = CC50 against HGF/CC50 against Ca9-22 was used (see C/A in Table 1).

[9] = tested on: OSCC cell lines (Ca9-22 + HSC-2 + HSC-3 + HSC-4); experiment: MTT cytotoxicity assay, OSCC cell lines together (mean, TS, PSE); settings: for CC50: Homo sapiens, read-out: CC50 Mean (B), human oral squamous cell carcinoma cell lines; for Type of growth inhibition (cytotoxic or cytostatic) from dose-response curve: OSCC cell lines and normal oral cells, Figure 1
Procedure: as §2, §3

[10] = tested on: Ca9-22 cells; experiment: Cell cycle analysis (PI staining, cell sorter) and cell morphology; assay type: cell-based, human; settings: Ca9-22, 20 h, 1 µM
Procedure: The changes in cell morphology were detected using light microscopy (EVOSfl; ThermoFisher Scientific, Waltham, MA, United States).
Ca9-22 cells (3 × 10^4/mL, 10 mL) were added to a 10-cm dish and allowed to fully attach to the dish over the course of 48 h of incubation. […] These cells were mixed and then washed once with PBS (−). Both cell groups were fixed for 1 h on ice with 1% paraformaldehyde. Fixed cells were then washed twice with PBS (−) and treated with 400 μL of 200 μg/mL RNase A (which was preheated for 10 min at 100°C to inactivate DNase) to degrade RNA. The cells were then washed twice with PBS (−) and stained for 15 min with 0.01% propidium iodide (PI) in the presence of 0.01% NP-40 in PBS (−) to prevent cell aggregation. After filtering through Falcon® cell strainers (nylon mesh, pore size: 40 μm) (Corning, NY, United States) to remove aggregated cells, PI-stained cells were then subjected to cell sorting using (SH800 Series; SONY Imaging Products and Solutions Inc., Kanagawa, Japan), and finally analyzed with the Cell Sorter Software version 2.1.2.

Compound	CC50 ([1]; MTT, 2 days exposure) [µM]	CC50 ([2]; MTT, 2 days exposure) [µM]	CC50 ([3]; MTT, 2 days exposure) [µM]	CC50 at 2 days [4] [µM]	CC50 at 2 days [5] [µM]	CC50 at 2 days [6] [µM]	CC50 at 2 days [7] [µM]	CC50 [8] [µM]	CC50 [9] [µM]	Type of growth inhibition (cytotoxic or cytostatic) from dose-response curve [9]	Morphological change of cells [10]	CC50 [1] [µM]	CC50 [2] [µM]	CC50 [3] [µM]	TS (tumor selectivity) C/A ([8]; CC50 HGF / CC50 Ca9-22)
COc1cccc2c1C(=O)c1c(O)c3c(c(O)c1C2=O)C[C@@](O)(C(=O)CO)C[C@@H]3O[C@H]1C[C@H](N)[C@H](O)[C@H](C)O1 [Doxorubicin, doxorubicin]	0.09	0.16	< 0.078	> 10	> 10	> 10	> 10	0.18	< 0.13	Cytotoxic	–	–	–	–	–
Cc1c2oc3c(C)ccc(C(=O)N[C@@H]4C(=O)N[C@H](C(C)C)C(=O)N5CCC[C@H]5C(=O)N(C)CC(=O)N(C)[C@@H](C(C)C)C(=O)O[C@@H]4C)c3nc-2c(C(=O)N[C@@H]2C(=O)N[C@H](C(C)C)C(=O)N3CCC[C@H]3C(=O)N(C)CC(=O)N(C)[C@@H](C(C)C)C(=O)O[C@@H]2C)c(N)c1=O [Act.D, actinomycin D] (I: T[dV]P[Sar][NMeV] / II: T[dV]P[Sar][NMeV]; ester I:1-I:C, II:1-II:C; linker I:N-II:N via Actinocin(9to1))	–	–	–	–	–	–	–	–	–	–	cell shrinkage	–	–	–	–
N[C@@H](Cc1ccc(N(CCCl)CCCl)cc1)C(=O)O [Melphalan, melphalan]	–	–	–	180	> 200	159	> 180	36.3	17.8	Cytotoxic	–	11	14.1	9.9	5.0
O=c1[nH]cc(F)c(=O)[nH]1 [5-FU, 5-fluorouracil]	292	> 1000	182	> 1000	> 1000	> 1000	> 1000	69.4	> 386	Cytostatic	–	–	–	–	–

From publication PMC10830635, “In vitro cytotoxicity of Withania somnifera (L.) roots and fruits on oral squamous cell carcinoma cell lines: a study supported by flow cytometry, spectral, and computational investigations” (Frontiers in Pharmacology, 2024)
